Among the test systems are NCI-H226 lung; 786-0 renal; K-562 leukemia; NCI-H23 lung; OVCAR-3 ovarian; SF-539 CNS; MCF7 breast; U251 CNS; HL-60(TB) leukemia; COLO 205 colon.
What all share (assay): DTP human tumour cell line panel, 48 h

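Following 48 hours of exposure in 96-well plates, responses at five concentrations were used to interpolate endpoints linearly. The concentration for full growth arrest is given as TGI.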

As for `CCOC(=O)c1cc2cc(Cc3ccc4[nH]c(C(=O)OCC)cc4c3)ccc2[nH]1`, the total growth inhibition concentration (TGI) (usually the concentration giving total growth inhibition) was 62.4 µM in the assay with NCI-H226 lung; 13 µM in the assay with 786-0 renal; above 100 µM in the assay on K-562 leukemia; 37.9 µM in the assay on NCI-H23 lung; above 100 µM with OVCAR-3 ovarian; 36.3 µM with SF-539 CNS. The total growth inhibition concentration (TGI) in the assay on MCF7 breast was above 100 µM; in the assay with U251 CNS, 29.9 µM; with HL-60(TB) leukemia it was above 100 µM; in the assay with COLO 205 colon it was above 100 µM.
For `O=C1CC(NC(=O)C(F)(F)F)c2c(Br)sc(N3CCC(c4ccccc4)CC3)c21` (stereo not given), the concentration for total growth inhibition (TGI) with NCI-H226 lung was 91.5 µM; in the assay with 786-0 renal, above 100 µM; in the assay with K-562 leukemia, above 100 µM; in the assay with NCI-H23 lung, above 100 µM; in the assay with OVCAR-3 ovarian it was 95.8 µM; in the assay on SF-539 CNS, above 100 µM. Moreover, the TGI is above 100 µM in the assay on MCF7 breast, 25.5 µM in the assay with U251 CNS, above 100 µM with HL-60(TB) leukemia and above 100 µM in the assay on COLO 205 colon.
With `N#CI1OC(=O)c2ccccc21`, the concentration for total growth inhibition (TGI) in the assay on NCI-H226 lung, with 786-0 renal, in the assay with K-562 leukemia, in the assay with NCI-H23 lung, in the assay on OVCAR-3 ovarian and in the assay on SF-539 CNS was above 100 µM throughout. The TGI in the assay on MCF7 breast, with U251 CNS, in the assay with HL-60(TB) leukemia and with COLO 205 colon was above 100 µM in each case.
As to `O=c1cnn(C2OC(CO)C(O)C(F)C2O)c(=O)[nH]1` (stereo not given), the TGI in the assay on NCI-H226 lung, with 786-0 renal, with K-562 leukemia, in the assay on NCI-H23 lung, in the assay on OVCAR-3 ovarian and with SF-539 CNS was above 100 µM in each case. Also, the TGI with MCF7 breast, in the assay on U251 CNS, in the assay on HL-60(TB) leukemia and with COLO 205 colon was above 100 µM in each case.
For `COC1/C=C\C=C(/C)C(=O)NC2=CC(=O)C(NCCCl)=C(CC(C)CC(OC)C(O)C(C)/C=C(/C)C1OC(N)=O)C2=O` (stereo not given), the TGI in the assay with NCI-H226 lung came to 8.62 µM; in the assay with 786-0 renal, 9.05 µM; with K-562 leukemia, 13.5 µM; in the assay on NCI-H23 lung, 1.27 µM; in the assay on OVCAR-3 ovarian it was 8.4 µM; in the assay on SF-539 CNS, 2.17 µM. In addition, the TGI in the assay with MCF7 breast is 2.19 µM; in the assay on U251 CNS it was 4.14 µM; with HL-60(TB) leukemia it was 3.23 µM; in the assay on COLO 205 colon it was 1.2 µM.
Regarding `COc1ccc(C2CC(c3cc4c(C)c(C(=O)c5ccccc5)oc4cc3O)=Nc3ccccc3S2)cc1OC` (stereo not given), the total growth inhibition concentration (TGI) was above 100 µM with NCI-H226 lung; above 100 µM with 786-0 renal; above 100 µM in the assay on K-562 leukemia; above 100 µM with NCI-H23 lung; above 100 µM in the assay with OVCAR-3 ovarian; above 86.2 µM in the assay with SF-539 CNS. In addition, the TGI in the assay on MCF7 breast, in the assay with U251 CNS, with HL-60(TB) leukemia and in the assay on COLO 205 colon was above 100 µM each time.
Regarding `CC(=O)N[C@@H](Cc1ccc(O)cn1)C(=O)NCc1cccc(F)c1`, the concentration for total growth inhibition (TGI) with NCI-H226 lung, in the assay with 786-0 renal, in the assay on K-562 leukemia, in the assay on NCI-H23 lung, in the assay with OVCAR-3 ovarian and with SF-539 CNS was above 100 µM each time. The concentration for total growth inhibition (TGI) in the assay on MCF7 breast, in the assay with U251 CNS, in the assay on HL-60(TB) leukemia and in the assay with COLO 205 colon was above 100 µM in each case.
Turning to `CN(C)CC1CCC/C(=C\c2ccc(N(C)C)cc2)C1=O` (stereo not given), the TGI in the assay with NCI-H226 lung was 64 µM; in the assay with 786-0 renal it was 10.8 µM; with K-562 leukemia, above 100 µM; in the assay on NCI-H23 lung it was 28.7 µM; with OVCAR-3 ovarian, 9.36 µM; in the assay with SF-539 CNS, 28.8 µM. The total growth inhibition concentration (TGI) in the assay on MCF7 breast is 2.82 µM; in the assay on U251 CNS, 30.7 µM; in the assay with HL-60(TB) leukemia it was above 100 µM; in the assay with COLO 205 colon it was 6.65 µM.
As to `O=C1N[C@H]2c3c(Cl)sc(Cl)c3C(=O)[C@H]2O1`, the total growth inhibition concentration (TGI) is 42.3 µM in the assay with NCI-H226 lung; above 54.2 µM in the assay with 786-0 renal; above 30.7 µM with K-562 leukemia; 29 µM with NCI-H23 lung; 36.8 µM with OVCAR-3 ovarian; 39.9 µM with SF-539 CNS. The TGI in the assay with MCF7 breast was above 100 µM; in the assay with U251 CNS it was 15.7 µM; in the assay with HL-60(TB) leukemia it was 4.98 µM; in the assay on COLO 205 colon it was above 51 µM.
On to `O=S(=O)(O)c1ccc(NN(c2c(O)ccc3ccccc23)S(=O)(=O)O)cc1`, for which the concentration for total growth inhibition (TGI) in the assay on NCI-H226 lung, in the assay with 786-0 renal, in the assay with K-562 leukemia, in the assay with NCI-H23 lung, in the assay with OVCAR-3 ovarian and in the assay on SF-539 CNS was above 100 µM throughout. Moreover, the TGI in the assay with MCF7 breast, with U251 CNS, with HL-60(TB) leukemia and in the assay on COLO 205 colon was above 100 µM throughout.
Turning to `COc1c2cc(C(C)(C)C)cc1CSCc1cc(C(C)(C)C)cc(c1OC)CCCCC2`, the TGI in the assay on NCI-H226 lung, in the assay on 786-0 renal, in the assay on K-562 leukemia, with NCI-H23 lung, in the assay on OVCAR-3 ovarian and in the assay with SF-539 CNS was above 50 µM throughout. Further, the TGI with MCF7 breast, in the assay on U251 CNS, in the assay with HL-60(TB) leukemia and in the assay on COLO 205 colon was above 50 µM throughout.
As to `CCOC(=O)C1(Cc2ccc(C)cc2)Cc2ccc(C)cc2C1=O` (stereo not given), the concentration for total growth inhibition (TGI) in the assay with NCI-H226 lung was above 92.4 µM; in the assay with 786-0 renal, above 100 µM; in the assay on K-562 leukemia, above 41.4 µM; in the assay on NCI-H23 lung, above 94.7 µM; in the assay on OVCAR-3 ovarian, above 100 µM; in the assay with SF-539 CNS it was 58.5 µM. Besides, the TGI in the assay with MCF7 breast is 28.3 µM; in the assay with U251 CNS, 35.6 µM; with HL-60(TB) leukemia, 23.6 µM; with COLO 205 colon, above 78.7 µM.
For `COc1ccc2nc3ccc(OC)cc3c(S(=O)Cc3ccc([N+](=O)[O-])cc3)c2c1` (stereo not given), the TGI in the assay with NCI-H226 lung was 45.6 µM; in the assay on 786-0 renal it was 4.26 µM; in the assay with K-562 leukemia, above 100 µM; with NCI-H23 lung, 25.1 µM; with OVCAR-3 ovarian, 14.2 µM; in the assay on SF-539 CNS, 7.25 µM. The TGI in the assay on MCF7 breast was 4.26 µM; in the assay with U251 CNS it was above 55.2 µM; with HL-60(TB) leukemia, 6.97 µM; in the assay with COLO 205 colon, 15.9 µM.
Regarding `COC(=O)C1Cc2c(C)cccc2C1=O` (stereo not given), the total growth inhibition concentration (TGI) with NCI-H226 lung, with 786-0 renal, in the assay on K-562 leukemia, with NCI-H23 lung, in the assay with OVCAR-3 ovarian and with SF-539 CNS was above 100 µM each time. The concentration for total growth inhibition (TGI) is above 100 µM in the assay on MCF7 breast, above 100 µM in the assay with U251 CNS, 77.8 µM in the assay with HL-60(TB) leukemia and above 100 µM in the assay with COLO 205 colon.
On to `COC(=O)OC[C@H]1O[C@@H](n2cc(C)c(=O)[nH]c2=O)CC1OC(=O)OC` (stereo not given in full), for which the TGI in the assay with NCI-H226 lung, in the assay on 786-0 renal, in the assay on K-562 leukemia, with NCI-H23 lung, with OVCAR-3 ovarian and in the assay on SF-539 CNS was above 100 µM each time. Also, the concentration for total growth inhibition (TGI) in the assay on MCF7 breast, in the assay with U251 CNS, in the assay on HL-60(TB) leukemia and in the assay on COLO 205 colon was above 100 µM throughout.
Turning to `O=[N+]([O-])/C(C(Cl)=C(Cl)Cl)=C1\Nc2ccccc2O1`, the TGI is 59.7 µM in the assay with NCI-H226 lung; 32.1 µM in the assay with 786-0 renal; above 100 µM in the assay on K-562 leukemia; above 100 µM in the assay on NCI-H23 lung; 63.6 µM with OVCAR-3 ovarian; 38.6 µM in the assay on SF-539 CNS. Also, the TGI was above 100 µM with MCF7 breast, above 100 µM in the assay with U251 CNS, 48.7 µM with HL-60(TB) leukemia and above 100 µM with COLO 205 colon.
Consider `N#CC(c1ccc(O)cc1)N1CCN(C(C#N)c2ccc(O)cc2)CC1` (stereo not given), for which the TGI in the assay on NCI-H226 lung was above 77.6 µM; with 786-0 renal, above 100 µM; with K-562 leukemia, above 100 µM; with NCI-H23 lung, above 100 µM; with OVCAR-3 ovarian it was above 100 µM; in the assay with SF-539 CNS it was above 100 µM. The TGI in the assay with MCF7 breast is above 100 µM; in the assay with U251 CNS, 51.9 µM; in the assay with HL-60(TB) leukemia, above 100 µM; with COLO 205 colon, above 100 µM.
Take `NC1=CN(CCCO)C2=N/C(=C\c3ccco3)C(=O)N12`: the TGI with NCI-H226 lung, with 786-0 renal, in the assay on K-562 leukemia, in the assay with NCI-H23 lung, in the assay with OVCAR-3 ovarian and in the assay on SF-539 CNS was above 100 µM throughout. In addition, the TGI in the assay on MCF7 breast, in the assay with U251 CNS, in the assay on HL-60(TB) leukemia and with COLO 205 colon was above 100 µM throughout.
Turning to `CCC1(O)C=CC(=O)C=C1`, the TGI in the assay with NCI-H226 lung is 75.3 µM; in the assay on 786-0 renal, 39.2 µM; in the assay on K-562 leukemia, above 100 µM; in the assay on NCI-H23 lung, 69.3 µM; with OVCAR-3 ovarian, 69.6 µM; in the assay with SF-539 CNS, 50.6 µM. In addition, the TGI with MCF7 breast was above 100 µM; in the assay on U251 CNS, 34.9 µM; in the assay on HL-60(TB) leukemia, above 100 µM; with COLO 205 colon, above 100 µM.
`O=C1Nc2ccccc2C(=O)OC(Cc2ccccc2)=Nc2ccccc21`: the concentration for total growth inhibition (TGI) in the assay on NCI-H226 lung, with 786-0 renal, in the assay with K-562 leukemia, in the assay with NCI-H23 lung, in the assay with OVCAR-3 ovarian and in the assay with SF-539 CNS was above 100 µM throughout. Further, the concentration for total growth inhibition (TGI) in the assay on MCF7 breast, with U251 CNS, in the assay on HL-60(TB) leukemia and in the assay with COLO 205 colon was above 100 µM each time.
As to `CCOC(=O)NNC(=O)NCCNC(=O)NNC(=O)OCC`, the TGI in the assay on NCI-H226 lung, with 786-0 renal, in the assay with K-562 leukemia, in the assay on NCI-H23 lung, in the assay with OVCAR-3 ovarian and in the assay on SF-539 CNS was above 100 µM in each case. Further, the concentration for total growth inhibition (TGI) in the assay on MCF7 breast, with U251 CNS, in the assay on HL-60(TB) leukemia and in the assay on COLO 205 colon was above 100 µM throughout.
Consider `Cc1ncc([N+](=O)[O-])n1CCN(C)CCCCn1ccnc1[N+](=O)[O-]`, for which the total growth inhibition concentration (TGI) in the assay on NCI-H226 lung, with 786-0 renal, in the assay on K-562 leukemia, with NCI-H23 lung, in the assay on OVCAR-3 ovarian and in the assay with SF-539 CNS was above 100 µM each time. In addition, the concentration for total growth inhibition (TGI) with MCF7 breast, in the assay with U251 CNS, in the assay on HL-60(TB) leukemia and with COLO 205 colon was above 100 µM throughout.

For the origin of these results see PubChem BioAssay (NCI).
